Source: the NIST ThermoML archive (doi:10.1021/je060271a)

Details: 303.15 K, Liquid, Vibrating tube method

CCCCCCC(=O)OCC(COC(=O)CCCCCC)(COC(=O)CCCCCC)COC(=O)CCCCCC [pentaerythritol tetraheptanoate]
Details	mass density [kg/m3]
21619 kPa	983.7
21662 kPa	983.7
21713 kPa	983.7
21752 kPa	983.7
21789 kPa	983.5
21831 kPa	983.9
21867 kPa	983.8
21902 kPa	983.8
22017 kPa	983.9
22097 kPa	984
22133 kPa	983.9
22169 kPa	984.1
22213 kPa	984
22250 kPa	983.9
22286 kPa	984.1
22330 kPa	984.1
22368 kPa	984.2
22406 kPa	984.1
22450 kPa	984.2
22567 kPa	984.2
22651 kPa	984.2
22689 kPa	984.3
22735 kPa	984.3
22774 kPa	984.3
22813 kPa	984.3
22853 kPa	984.3
22901 kPa	984.4
23031 kPa	984.5
23066 kPa	984.4
23098 kPa	984.5
23130 kPa	984.5
23162 kPa	984.4
23201 kPa	984.5
23233 kPa	984.6
23266 kPa	984.7
23304 kPa	984.6
23337 kPa	984.5
23376 kPa	984.7
23409 kPa	984.6
23442 kPa	984.6
23475 kPa	984.8
23516 kPa	984.8
23549 kPa	984.7
23582 kPa	984.8
23622 kPa	984.7
23797 kPa	984.9
23831 kPa	985
23873 kPa	984.9
23908 kPa	985
23943 kPa	985
23985 kPa	985
24019 kPa	984.9
24054 kPa	985
24201 kPa	985.1
24243 kPa	985.2
24278 kPa	985.2
24320 kPa	985.2
24392 kPa	985.2
24436 kPa	985.2
24472 kPa	985.4
24509 kPa	985.1
24545 kPa	985.2
24588 kPa	985.3
24624 kPa	985.4
24661 kPa	985.3
24706 kPa	985.3
24743 kPa	985.5
24780 kPa	985.5
24825 kPa	985.4
24863 kPa	985.4
24901 kPa	985.4
24947 kPa	985.5
24984 kPa	985.5
25022 kPa	985.6
25060 kPa	985.5
25106 kPa	985.6
25144 kPa	985.5
25182 kPa	985.7
25228 kPa	985.7
25267 kPa	985.6
25306 kPa	985.6
25353 kPa	985.7
25392 kPa	985.7
25431 kPa	985.8
25472 kPa	985.7
25520 kPa	985.8
25560 kPa	986
25601 kPa	986
25648 kPa	985.9
25688 kPa	985.8
25729 kPa	985.9
25778 kPa	985.9
25818 kPa	986
25860 kPa	986
25901 kPa	986.1
25951 kPa	986
25994 kPa	986
26038 kPa	986
26079 kPa	986.1
26130 kPa	986.1
26172 kPa	986.2
26215 kPa	986.2
26266 kPa	986.2
26309 kPa	986.3
26347 kPa	986.3
26391 kPa	986.3
26429 kPa	986.4
26466 kPa	986.4
26512 kPa	986.4
26551 kPa	986.4
26590 kPa	986.3
26628 kPa	986.5
